Here are results for four molecules from patent US9562085B2, “Antimicrobial peptide” (priority 2013, dated 2017).

Non-standard residues stand in square brackets, D forms with d. Residues, ends and D or L forms follow the SMILES beside them.

For the assay, the system named is S. aureus JAR. The assay is classed as cell-based. The note with it: JAR, 2 h. On the procedure:
S. aureus JAR is described in Campoccia et al. (Int. J. Artif. Organs, 2008 September; 31(9):841-7).
For the in vitro killing assay with P10 variants, S. aureus JAR ([…] CFU/ml) were incubated for 2 hours at 37° C. with various concentrations of the peptides in PBS or in PBS/human plasma (1/1, v/v). […] The LC99.9 is the average value of two independent experiments.
`CC[C@H](C)[C@H](NC(=O)[C@H](CCCCN)NC(=O)[C@H](CCCCN)NC(=O)[C@H](Cc1ccc(O)cc1)NC(=O)[C@H](CCC(=O)O)NC(=O)[C@H](CCCNC(=N)N)NC(=O)[C@H](C)NC(=O)[C@H](CC(C)C)NC(C)=O)C(=O)N[C@@H](C(=O)N[C@@H](CCC(=O)O)C(=O)N[C@@H](CCCCN)C(=O)N[C@@H](CC(C)C)C(=O)N[C@@H](CCCCN)C(=O)N[C@@H](CCCNC(=N)N)C(=O)N[C@@H](Cc1c[nH]c2ccccc12)C(=O)N[C@@H](CC(C)C)C(=O)N[C@@H](CCCNC(=N)N)C(=O)N[C@@H](CCC(N)=O)C(=O)N[C@H](C(=O)N[C@@H](CC(C)C)C(=O)N[C@@H](CCCNC(=N)N)C(=O)N[C@H](C(=O)N[C@@H](CC(C)C)C(=O)N[C@@H](CCCNC(=N)N)C(N)=O)[C@@H](C)O)C(C)C)C(C)C` [Peptide 1301-9, JLAREYKKIvEKLKRWLRQVLRTLRB] (Ac-LAREYKKI[dV]EKLKRWLRQVLRTLR-NH2): the “LC99.9 (μM) (50% plasma)” value turned out to be 38.4 µM and the “LC99.9 (μM) (PBS)” value is 0.6 µM.

Take `CC[C@H](C)[C@H](NC(=O)[C@H](CCCCN)NC(=O)[C@H](CCCCN)NC(=O)[C@H](Cc1ccc(O)cc1)NC(=O)[C@H](CCC(=O)O)NC(=O)[C@H](CCCNC(=N)N)NC(=O)[C@H](C)NC(=O)[C@H](CC(C)C)NC(C)=O)C(=O)N[C@H](C(=O)N[C@H](CCC(=O)O)C(=O)N[C@@H](CCCCN)C(=O)N[C@@H](CC(C)C)C(=O)N[C@@H](CCCCN)C(=O)N[C@@H](CCCNC(=N)N)C(=O)N[C@@H](Cc1c[nH]c2ccccc12)C(=O)N[C@@H](CC(C)C)C(=O)N[C@@H](CCCNC(=N)N)C(=O)N[C@@H](CCC(N)=O)C(=O)N[C@H](C(=O)N[C@@H](CC(C)C)C(=O)N[C@@H](CCCNC(=N)N)C(=O)N[C@H](C(=O)N[C@@H](CC(C)C)C(=O)N[C@@H](CCCNC(=N)N)C(N)=O)[C@@H](C)O)C(C)C)C(C)C` [Peptide 1301-10, JLAREYKKIVeKLKRWLRQVLRTLRB] (Ac-LAREYKKIV[dE]KLKRWLRQVLRTLR-NH2): the “LC99.9 (μM) (50% plasma)” value stood at 38.4 µM and the “LC99.9 (μM) (PBS)” value amounted to 0.6 µM.

As for `CC[C@H](C)[C@H](NC(=O)[C@H](CCCCN)NC(=O)[C@H](CCCCN)NC(=O)[C@H](Cc1ccc(O)cc1)NC(=O)[C@H](CCC(=O)O)NC(=O)[C@H](CCCNC(=N)N)NC(=O)[C@H](C)NC(=O)[C@H](CC(C)C)NC(C)=O)C(=O)N[C@H](C(=O)N[C@@H](CCC(=O)O)C(=O)N[C@H](CCCCN)C(=O)N[C@@H](CC(C)C)C(=O)N[C@@H](CCCCN)C(=O)N[C@@H](CCCNC(=N)N)C(=O)N[C@@H](Cc1c[nH]c2ccccc12)C(=O)N[C@@H](CC(C)C)C(=O)N[C@@H](CCCNC(=N)N)C(=O)N[C@@H](CCC(N)=O)C(=O)N[C@H](C(=O)N[C@@H](CC(C)C)C(=O)N[C@@H](CCCNC(=N)N)C(=O)N[C@H](C(=O)N[C@@H](CC(C)C)C(=O)N[C@@H](CCCNC(=N)N)C(N)=O)[C@@H](C)O)C(C)C)C(C)C` [Peptide 1301-11, JLAREYKKIVEkLKRWLRQVLRTLRB] (Ac-LAREYKKIVE[dK]LKRWLRQVLRTLR-NH2), the “LC99.9 (μM) (50% plasma)” value was found to be 19.2 µM and the “LC99.9 (μM) (PBS)” value turned out to be 0.4 µM.

`CC[C@H](C)[C@H](NC(=O)[C@H](CCCCN)NC(=O)[C@H](CCCCN)NC(=O)[C@H](Cc1ccc(O)cc1)NC(=O)[C@H](CCC(=O)O)NC(=O)[C@H](CCCNC(=N)N)NC(=O)[C@H](C)NC(=O)[C@H](CC(C)C)NC(C)=O)C(=O)N[C@H](C(=O)N[C@@H](CCC(=O)O)C(=O)N[C@@H](CCCCN)C(=O)N[C@H](CC(C)C)C(=O)N[C@@H](CCCCN)C(=O)N[C@@H](CCCNC(=N)N)C(=O)N[C@@H](Cc1c[nH]c2ccccc12)C(=O)N[C@@H](CC(C)C)C(=O)N[C@@H](CCCNC(=N)N)C(=O)N[C@@H](CCC(N)=O)C(=O)N[C@H](C(=O)N[C@@H](CC(C)C)C(=O)N[C@@H](CCCNC(=N)N)C(=O)N[C@H](C(=O)N[C@@H](CC(C)C)C(=O)N[C@@H](CCCNC(=N)N)C(N)=O)[C@@H](C)O)C(C)C)C(C)C` [Peptide 1301-12, JLAREYKKIVEKlKRWLRQVLRTLRB] (Ac-LAREYKKIVEK[dL]KRWLRQVLRTLR-NH2): the “LC99.9 (μM) (50% plasma)” value was found to be 32.0 µM and the “LC99.9 (μM) (PBS)” value stood at 0.6 µM.
